Test results from PMC3516848 (Journal of medicinal chemistry, 2011).

Target: T1, recombinant PfA-M1 (Plasmodium falciparum, UniProt O96935)
T1 sequence (O96935 1-1085): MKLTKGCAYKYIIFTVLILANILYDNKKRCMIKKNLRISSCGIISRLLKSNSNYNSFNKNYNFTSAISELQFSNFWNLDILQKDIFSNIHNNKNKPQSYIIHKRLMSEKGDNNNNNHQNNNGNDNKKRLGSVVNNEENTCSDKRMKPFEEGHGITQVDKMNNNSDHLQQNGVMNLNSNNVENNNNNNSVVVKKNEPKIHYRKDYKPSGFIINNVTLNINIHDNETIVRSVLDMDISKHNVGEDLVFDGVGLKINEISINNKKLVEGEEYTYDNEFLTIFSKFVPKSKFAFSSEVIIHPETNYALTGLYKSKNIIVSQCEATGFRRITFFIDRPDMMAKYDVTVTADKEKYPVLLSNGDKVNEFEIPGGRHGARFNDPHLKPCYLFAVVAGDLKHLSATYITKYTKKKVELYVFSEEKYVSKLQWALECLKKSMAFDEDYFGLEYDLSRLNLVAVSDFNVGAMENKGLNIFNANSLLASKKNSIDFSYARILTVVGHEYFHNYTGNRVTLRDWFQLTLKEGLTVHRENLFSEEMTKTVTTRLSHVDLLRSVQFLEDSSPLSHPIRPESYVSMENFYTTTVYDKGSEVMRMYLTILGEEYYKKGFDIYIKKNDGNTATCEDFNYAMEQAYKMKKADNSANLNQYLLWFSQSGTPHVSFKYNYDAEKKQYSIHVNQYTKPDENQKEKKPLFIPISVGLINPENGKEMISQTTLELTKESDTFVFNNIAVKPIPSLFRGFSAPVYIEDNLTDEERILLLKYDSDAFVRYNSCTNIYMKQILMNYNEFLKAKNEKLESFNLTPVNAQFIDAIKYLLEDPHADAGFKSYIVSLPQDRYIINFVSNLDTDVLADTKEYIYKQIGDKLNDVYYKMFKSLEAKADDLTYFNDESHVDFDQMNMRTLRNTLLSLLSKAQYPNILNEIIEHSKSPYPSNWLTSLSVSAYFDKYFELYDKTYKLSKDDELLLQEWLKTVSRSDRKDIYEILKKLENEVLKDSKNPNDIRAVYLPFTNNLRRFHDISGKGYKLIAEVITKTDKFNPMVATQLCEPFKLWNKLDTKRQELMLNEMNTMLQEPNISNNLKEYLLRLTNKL
Type: biochemical
Conditions: read-out: Ki (nM) PfA-M1; P1' derivatives; assays at 8 inhibitor concentrations spanning 0.3 30 μM

## N[C@H](Cc1ccccc1)[C@H](O)C(=O)N[C@@H](Cc1ccc2ccccc2c1)C(=O)O [compound 5, PheNaphOH]
  Ki: > 30000 nM

## N[C@H](Cc1ccccc1)[C@H](O)C(=O)N[C@@H](Cc1ccc(-c2ccccc2)cc1)C(=O)O [compound 6, PheBipOH]
  Ki: > 30000 nM
